Data reported in US10561619B2, “Pharmaceutical composition comprising dutasteride and propylene glycol monolaurate and preparation method of the same” (Yuyu Pharma, Inc., priority 2015, dated 2020).
In brackets after ≈: the same amount, converted by molar mass.

How the values were obtained:
[1] = Evaluation of oil solubility of dutasteride; assay type: physicochemical; settings: for solubility at 24 h: oil or lipid, thermodynamic from solid
Method: In order to measure the solubility of dutasteride in oil, the solubility of dutasteride in glycerol tricaprylate, glycerol tricaprylate/caprate, glycerol tricaprylate/caprate/linoleate, propylene glycol dicaprylocaprate, propylene glycol dicaprate, propylene glycol dicaprylate and propylene glycol monolaurate was measured. In a 10 mL vial, a magnetic bar was placed. After 3 mL of the oil was added thereto, approximately 100 mg of dutasteride was added thereto while stirring under a room temperature (25° C.) condition, and the resultant mixture was stirred at 500 rpm or higher. After stirring for 24 hours, 1 mL of the resultant mixture was taken and separated using a centrifuge, and only a supernatant was taken to quantify an amount of dutasteride dissolved in the oil using liquid chromatography.

[2] = Stability of dutasteride depending on oil type (degradation products); assay type: physicochemical
Method: In Test Example 2, in order to identify the stability of dutasteride in oil, the oil and dutasteride are mixed at a ratio of about 10 to 1, and then a stability test is carried out under an accelerated and stress condition, and a percentage of generated unknown degradation products with respect to the active ingredient is calculated to confirm whether degradation products are generated or not.
In order to identify the stability of dutasteride in mono- and di-glyceride of caprylic/capric acid used as an oil phase of AVODART®, an existing commercially-available formulation, the stability of dutasteride was compared under the stress condition (50° C., 95% RH) and the accelerated condition (40° C., 75% RH). In the comparison test, a sample prepared by dissolving 1.0 mg of dutasteride in 10.0 mg of propylene glycol monocaprylate and stored in a transparent vial and a sample prepared by dissolving 1.0 mg of dutasteride in 10.0 mg of mono- and di-glyceride of caprylic/capric acid and stored in a transparent vial were used.

Structure (SMILES): C[C@]12C=CC(=O)N[C@@H]1CC[C@@H]1[C@@H]2CC[C@]2(C)[C@@H](C(=O)Nc3cc(C(F)(F)F)ccc3C(F)(F)F)CC[C@@H]12 [dutasteride, 17β-N-(2,5-bis(trifluoromethyl))phenylcarbamoyl-4-aza-5α-androst-1-en-3-one]
- solubility at 24 h ([1]; glycerol tricaprylate (oil), in glycerol tricaprylate, 25° C., stirring 24 hours): 840 µg/mL (≈ 1590 µM)
- solubility at 24 h ([1]; glycerol tricaprylate/caprate/linoleate (oil), in glycerol tricaprylate/caprate/linoleate, 25° C., stirring 24 hours): 220 µg/mL (≈ 416 µM)
- Solubility ([1]; in glycerol tricaprylate/caprate, 25° C., stirring 24 hours): 810 µg/mL (≈ 1530 µM)
- solubility at 24 h ([1]; propylene glycol dicaprylocaprate (oil), in propylene glycol dicaprylroccaprate, 25° C., stirring 24 hours): 970 µg/mL (≈ 1840 µM)
- higher solubility in propylene glycol monolaurate compared to other tested oils ([1]; propylene glycol monolaurate vs other tested oils): ≥ 10 times
- percentage of degradation products with respect to dutasteride ([2]; in mono- and di-glyceride of caprylic/capric acid, stress condition (50° C., 95% RH), Week 1): None
- percentage of degradation products with respect to dutasteride ([2]; in mono- and di-glyceride of caprylic/capric acid, stress condition (50° C., 95% RH), Week 2): None
- percentage of degradation products with respect to dutasteride ([2]; in mono- and di-glyceride of caprylic/capric acid, stress condition (50° C., 95% RH), Week 3): None
- percentage of degradation products with respect to dutasteride ([2]; in propylene glycol monolaurate, accelerated condition (40° C., 75% RH), Week 4): not generated and None
- percentage of degradation products with respect to dutasteride ([2]; in propylene glycol monolaurate, stress condition (50° C., 95% RH), Week 1): None
- percentage of degradation products with respect to dutasteride ([2]; in propylene glycol monolaurate, stress condition (50° C., 95% RH), Week 2): None
- percentage of degradation products with respect to dutasteride ([2]; in propylene glycol monolaurate, stress condition (50° C., 95% RH), Week 3): None
